One assay concerns the target T1, Bile acid receptor (Homo sapiens, UniProt Q96RI1).
T1 sequence (Q96RI1 whole entry): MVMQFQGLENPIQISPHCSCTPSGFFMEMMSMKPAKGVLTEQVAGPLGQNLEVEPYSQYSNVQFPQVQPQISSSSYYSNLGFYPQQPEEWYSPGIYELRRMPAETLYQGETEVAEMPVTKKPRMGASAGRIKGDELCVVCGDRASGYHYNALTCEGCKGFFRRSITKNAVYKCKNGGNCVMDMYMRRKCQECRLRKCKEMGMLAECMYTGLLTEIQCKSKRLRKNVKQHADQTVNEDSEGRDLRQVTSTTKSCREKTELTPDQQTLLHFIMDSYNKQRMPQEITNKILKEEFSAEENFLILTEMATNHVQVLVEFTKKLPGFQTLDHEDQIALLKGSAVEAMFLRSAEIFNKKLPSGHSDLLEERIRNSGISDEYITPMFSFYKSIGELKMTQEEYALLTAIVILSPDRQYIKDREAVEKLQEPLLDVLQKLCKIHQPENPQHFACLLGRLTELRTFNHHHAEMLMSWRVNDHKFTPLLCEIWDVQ
Kind of assay: Agonist activity at FXR assessed as activation by cell based luciferase transactivation assay. Type of assay: functional.

Assay [1] addresses T2, Bile acid receptor (Homo sapiens) (UniProt Q96RI1).
T2 sequence (whole entry): T1 sequence (Q96RI1 whole entry)
The assay is described as follows: Agonist activity at FXR assessed as activation by cell based luciferase transactivation assay at less than 5 uM. Type of assay: functional.

Twelve compounds from ChEMBL document CHEMBL1142452, “Pyrazolidine-3,5-dione derivatives as potent non-steroidal agonists of farnesoid X receptor: virtual screening, synthesis, and biological evaluation” (Bioorg Med Chem Lett, 2008) can be followed below.

Active and inactive are the calls of the source. The rule behind the calls is not given here.

For the compound `O=C1NN(C(=O)c2ccccc2)C(=O)/C1=C/c1ccc(OCc2ccccc2)cc1`, the EC50 (usually the concentration needed to bring the measured effect to its halfway point) at Bile acid receptor was found to be 3.98 µM.

Take `O=C1C(=Cc2ccc(OCc3ccccc3)cc2)C(=O)N(c2ccccc2)N1c1ccccc1`: the EC50 at Bile acid receptor is 6.31 µM. For the same compound, in assay [1], the outcome was Active.

In the case of `O=C1NN(C(=O)c2ccco2)C(=O)/C1=C/c1ccc(OCc2ccccc2)cc1`, on Bile acid receptor, the EC50 came to 3.31 µM.

Turning to `Cc1cccc(COc2cccc(/C=C3\C(=O)NN(C(=O)c4ccc(F)cc4)C3=O)c2)c1`, the EC50 at Bile acid receptor was 1.86 µM. Besides, the result in assay [1] was Active.

Take `O=C1NN(c2ccccc2)C(=O)/C1=C/c1cccc(OCc2cccc(C(F)(F)F)c2)c1`: the EC50 at Bile acid receptor was found to be 6.92 µM.

With `Cc1cccc(COc2cccc(/C=C3\C(=O)NN(C(=O)c4ccncc4)C3=O)c2)c1`, the EC50 at Bile acid receptor was 2.4 µM. The outcome in assay [1] was Active.

For the compound `CCOC(=O)C(=Cc1ccc(OCc2ccccc2)cc1)C(=O)OCC`, on Bile acid receptor, the EC50 is 6.17 µM.

`O=C1NN(c2ccccc2)C(=O)/C1=C/c1cccc(OCc2ccc(C(F)(F)F)cc2)c1`: the EC50 at Bile acid receptor came out at 2.04 µM. In assay [1], the outcome was Active.

Take `Cc1cccc(COc2cccc(/C=C3\C(=O)NN(c4ccccc4[N+](=O)[O-])C3=O)c2)c1`: the EC50 on Bile acid receptor is 5.37 µM.

For the compound `O=C1NN(c2ccccc2)C(=O)/C1=C/c1cccc(OCc2cccc(F)c2)c1`, on Bile acid receptor, the EC50 is 4.79 µM.

`Cc1cccc(COc2cccc(/C=C3\C(=O)NN(c4ccccc4)C3=O)c2)c1`: the EC50 on Bile acid receptor was 5.15 µM.

Take `O=C1C(=Cc2cccc([N+](=O)[O-])c2)C(=O)N(c2ccccc2)N1c1ccccc1`: the EC50 on Bile acid receptor came to 4.27 µM.
